# Earlier results in patent US8091275B2, “pH buffered plant nutrient compositions and methods for growing plants” (AeroGrow International, priority 2004, dated 2012).
# Tested on: plants
# Conditions: phosphorous maintained at levels adequate to stabilize pH (1 to 10 mM)
substance,measurement,value
phosphorous,toxicity to plants,toxic to plants
